We go through eleven compounds from US7649012B2, “Compounds, pharmaceutical compositions containing same, and methods of use for same” (FASgen, Inc., priority 2002, dated 2010).

Values after ≈ are worked out from the molar mass of the structure shown. Like-named read-outs stand apart in the source and are kept apart here.

Format in all cases: cell-based
The test system of test [1] is Pseudomonas aeruginosa (ATCC # 27853). Put plainly: Broth microdilution MIC. The settings on record: for PSAE/MH(MIC): Mueller Hinton Broth; for PSAE/Tsoy(MIC): Trypticase Soy Broth. How it is done: (§1) A broth microdilution assay is used to assess the antimicrobial activity of the compounds. […] Microorganisms tested include Staphylococcus aureus (ATCC # 29213), Enterococcus faecalis (ATCC # 29212), Pseudomonas aeruginosa (ATCC # 27853), and Escherichia coli (ATCC # 25922). The assay is performed in two growth media, Mueller Hinton Broth and Trypticase Soy Broth. […] Colonies are suspended in sterile broth so that the turbidity matches the turbidity of a 0.5 McFarland standard. The inoculum is diluted 1:10 in sterile broth (Mueller Hinton or Trypticase soy) and 195 ul is dispensed per well of a 96-well plate. The compounds to be tested, dissolved in DMSO, are added to the wells in 5 ul volume at the following concentrations: 25, 12.5, 6.25, 3.125, 1.56 and 0.78 ug/ml in duplicate. Additional concentrations are tested if required. 5 ul of DMSO added to duplicate wells are the vehicle control. Serial dilutions of positive control compounds, vancomycin (E. faecalis and S. aureus) and tobramycin (E. coli and P. aeruginosa), are included in each run. After 24 hours of incubation at 37° C., plates are read at OD600 on a Molecular Devices SpectraMax Plus Spectrophotometer. Average OD600 values are computed using SOFTmax Pro Software (Molecular Devices) and MIC values are determined by linear regression analysis using Prism version 3.02 (Graph Pad Software, San Diego).
A general note: Broth dilution looks for growth in wells or tubes with falling amounts of substance.

Test [2] concerns Staphylococcus aureus (ATCC # 29213). The test can be described thus: Broth microdilution MIC. The following applies: for MIC: Staphylococcus aureus, ATCC29213. How it is done: as §1
For test [3], the system named is Escherichia coli (ATCC # 25922). Put plainly: Broth microdilution MIC. The following applies: for MIC: Escherichia coli, ATCC25922. How it is done:
as §1

In test [4] the test system is Enterococcus faecalis (ATCC # 29212). Put plainly: Broth microdilution MIC. The settings on record: for MIC: Enterococcus faecalis, ATCC29212. The procedure:
as §1

In test [5] the test system is MCF-7 human breast cancer cells. Put plainly: [14C]acetate incorporation into total lipids. The following applies: for IC50: Homo sapiens, MCF7, [14C]acetate incorporation into lipids. How it is done:
This assay measures the incorporation of [^14C]acetate into total lipids and is a measure of fatty acid synthesis pathway activity in vitro. It is utilized to measure inhibition of fatty acid synthesis in vitro.
MCF-7 human breast cancer cells cultured as above, are plated at 5×10^4 cells per well in 24-well plates. […] DMSO is added to triplicate wells for a vehicle control. C75 is run at 5 and 10 μg/ml in triplicate as positive controls. After 4 hours of incubation, 0.25 μCi of [^14C]acetate (10 μl volume) is added to each well.
After 2 hours of additional incubation, medium is aspirated from the wells and 800 μl of chloroform:methanol (2:1) and 700 μl of 4 mM MgCl2 is added to each well. Contents of each well are transferred to 1.5 Eppendorf tubes, and spun at full-speed for 2 minutes in a high-speed Eppendorf Microcentrifuge 5415D. After removal of the aqueous (upper) layer, an additional 700 μl of chloroform:methanol (2:1) and 500 μl of 4 mM MgCl2 are added to each tube and then centrifuged for 1 minutes as above. The aqueous layer is removed with a Pasteur pipette and discarded. An additional 400 μl of chloroform:methanol (2:1) and 200 μl of 4 mM MgCl2 are added to each tube, then centrifuged and aqueous layer is discarded. The lower (organic) phase is transferred into a scintillation vial and dried at 40° C. under N2 gas. Once dried, 3 ml of scintillant (APB #NBC5104) is added and vials are counted for ^14C. The Beckman Scintillation counter calculates the average cpm values for triplicates.
The IC50 for the compounds is defined as the concentration of drug leading to a 50% reduction in [^14C]acetate incorporation into lipids compared to controls. […] The average cpm values are computed by the Beckman scintillation counter (Model LS6500) for each compound concentration. Computation of linear regression, best-fit line, r^2, and 95% confidence intervals are calculated using Prism Version 3.0 (Graph Pad Software).

Where [6] appears, read: Mueller Hinton Broth, read-out: SA/MH(MIC).
Where [7] appears, read: Trypticase Soy Broth, read-out: SA/Tsoy(MIC).
Where [8] appears, read: Trypticase Soy Broth, read-out: Ecoli/Tsoy(MIC).
The mark [9] stands for this setting: Mueller Hinton Broth, read-out: EF/MH(MIC).
Setting [10] is: Trypticase Soy Broth, read-out: EF/Tsoy(MIC).

As a reminder, the IC50 is the concentration that gives 50% inhibition. Read a high IC50 as weaker potency in that assay.

As for `CCCCCCCCC1(C)SC(=O)C(C)=C1O` (stereo not drawn), in test [1], the “PSAE/MH(MIC)” value is “Neg”. The “PSAE/Tsoy(MIC)” value in test [1] is “Neg”. Moreover, the MIC worked out at 45 ± 2 µg/mL (≈ 175 µM) in test [2] (setting [6]); 23.5 ± 0.4 µg/mL (≈ 91.6 µM) in test [2] (setting [7]); 290 µg/mL (≈ 1130 µM) in test [3] (setting [8]); 44 µg/mL (≈ 172 µM) in test [4] (setting [9]); 105 µg/mL (≈ 409 µM) in test [4] (setting [10]). Besides, in test [3] (Mueller Hinton Broth), the “Ecoli/MH(MIC)” value was “Neg”. Moreover, in test [5], half-maximal inhibition (IC50) was put at 16.5 ± 5.7 µg/mL (≈ 64.3 µM).
On to `C/C=C/C(C)=C/C1(C)SC(=O)C=C1O` (stereo not drawn), for which, in test [1], the “PSAE/MH(MIC)” value was “Neg” and the “PSAE/Tsoy(MIC)” value is “Neg”. In test [2] (setting [6]), the MIC is 52 µg/mL (≈ 247 µM). In addition, in test [2] (setting [7]), the MIC worked out at 87 µg/mL (≈ 414 µM). Also, the “Ecoli/MH(MIC)” value in test [3] (Mueller Hinton Broth) was “Neg”. Further, the “Ecoli/Tsoy(MIC)” value in test [3] (Trypticase Soy Broth) is on record as “Neg”. The “EF/MH(MIC)” value in test [4] (Mueller Hinton Broth) is recorded as “Neg”. The “EF/Tsoy(MIC)” value in test [4] (Trypticase Soy Broth) is “Neg”. Half-maximal inhibition in test [5] (IC50) required 17.3 µg/mL (≈ 82.3 µM).
For the compound `C=CCNC(=O)COC1=CC(=O)S[C@]1(C)CCCCCCCCCC` (racemic), in test [1], the “PSAE/MH(MIC)” value was “Neg” and the “PSAE/Tsoy(MIC)” value is recorded as “Neg”. In addition, in test [2] (setting [6]), the MIC was 28 µg/mL (≈ 76.2 µM). The MIC in test [2] (setting [7]) is 31 µg/mL (≈ 84.3 µM). In addition, the “14C(IC50)” value in test [5] ([14C]acetate incorporation into lipids) is listed as “Neg”.
Turning to `C=CCC1(C)C(=O)S[C@](C)(CCCCCCCC)C1=O` (mixture of isomers), the “PSAE/MH(MIC)” value in test [1] was “Neg”. The “PSAE/Tsoy(MIC)” value in test [1] was “Neg”. Besides, in test [2] (Mueller Hinton Broth), the “SA/MH(MIC)” value is reported as “Neg”. For the same compound, the MIC in test [2] (setting [7]) was 97 µg/mL; in test [4] (setting [9]) it was 133 µg/mL; in test [4] (setting [10]) it was 91 µg/mL. For the same compound, the “Ecoli/MH(MIC)” value in test [3] (Mueller Hinton Broth) is given as “Neg”. Further, the “Ecoli/Tsoy(MIC)” value in test [3] (Trypticase Soy Broth) is given as “Neg”. In test [5], this compound displayed an IC50 of 14.9 µg/mL.
For the compound `CCCCCCCC[C@@]1(C)SC(=O)C(C(=O)C(F)(F)F)=C1O` (racemic), in test [1], the “PSAE/MH(MIC)” value is “Neg” and the “PSAE/Tsoy(MIC)” value was “Neg”. Besides, in test [2] (setting [6]), the MIC was 54 µg/mL (≈ 160 µM). Further, the MIC in test [2] (setting [7]) was 65 µg/mL (≈ 192 µM). For the same compound, in test [5], the half-maximal inhibitory concentration (IC50) turned out to be 14.7 µg/mL (≈ 43.4 µM).
`CCCCCCCCC1(C)SC(=O)C=C1OC(=O)OCC` (stereo not drawn): the MIC in test [2] (setting [6]) was 45 µg/mL (≈ 143 µM); in test [2] (setting [7]), 83 µg/mL (≈ 264 µM); in test [4] (setting [9]), 86 µg/mL (≈ 273 µM); in test [4] (setting [10]) it was 62 µg/mL (≈ 197 µM). In addition, the IC50 in test [5] is 14.5 ± 6.9 µg/mL (≈ 46.1 µM).
For the compound `CCCCCCCCC1(C)SC(=O)C=C1OCC(=O)NNC(=O)c1ccco1` (stereo not drawn), the IC50 in test [5] was determined as 16.4 µg/mL (≈ 40.1 µM).
Consider `CCCCCCCCC1(C)SC(=O)C(C(C)O)=C1O` (stereo not drawn), for which the “PSAE/MH(MIC)” value in test [1] is recorded as “Neg”. Also, the “PSAE/Tsoy(MIC)” value in test [1] is on record as “Neg”. In addition, the MIC in test [2] (setting [6]) stood at 53.1 ± 0.5 µg/mL (≈ 185 µM); in test [2] (setting [7]) it was 12 ± 0.5 µg/mL (≈ 41.9 µM); in test [4] (setting [9]) it was 66 µg/mL (≈ 230 µM); in test [4] (setting [10]) it was 21 µg/mL (≈ 73.3 µM). The “Ecoli/MH(MIC)” value in test [3] (Mueller Hinton Broth) is reported as “Neg”. In test [3] (Trypticase Soy Broth), the “Ecoli/Tsoy(MIC)” value is “Neg”. This compound yielded an IC50 in test [5] of 17.6 µg/mL (≈ 61.4 µM).
Consider `COC1=CC(=O)SC1(C)Cc1ccccc1` (stereo not drawn), for which the “PSAE/MH(MIC)” value in test [1] is recorded as “Neg”. In test [1], the “PSAE/Tsoy(MIC)” value is “Neg”. Also, the MIC in test [2] (setting [6]) is 83 µg/mL (≈ 354 µM); in test [2] (setting [7]) it was 129 µg/mL (≈ 551 µM); in test [4] (setting [9]) it was 170 µg/mL (≈ 726 µM); in test [4] (setting [10]), 189 µg/mL (≈ 807 µM). Further, the “Ecoli/MH(MIC)” value in test [3] (Mueller Hinton Broth) is listed as “Neg”. Moreover, the “Ecoli/Tsoy(MIC)” value in test [3] (Trypticase Soy Broth) was “Neg”.
In the case of `CCCCCCCC[C@@]1(C)SC(=O)C=C1OC(=O)OC` (racemic), the “PSAE/MH(MIC)” value in test [1] is recorded as “Neg”. Also, in test [1], the “PSAE/Tsoy(MIC)” value was “Neg”. Also, the MIC amounted to 64 µg/mL (≈ 213 µM) in test [2] (setting [6]); 41 µg/mL (≈ 136 µM) in test [2] (setting [7]); 296 µg/mL (≈ 985 µM) in test [3] (Mueller Hinton Broth, read-out: Ecoli/MH(MIC)); 73 µg/mL (≈ 243 µM) in test [4] (setting [9]); 65 µg/mL (≈ 216 µM) in test [4] (setting [10]). Moreover, the “Ecoli/Tsoy(MIC)” value in test [3] (Trypticase Soy Broth) is given as “Neg”. The compound also came in with an IC50 in test [5] of 10.7 µg/mL (≈ 35.6 µM).
Take `CCCCCC[C@@]1(C)SC(=O)C=C1OCC(=O)NCCCBr` (racemic): the “PSAE/MH(MIC)” value in test [1] is “Neg”. Besides, the “PSAE/Tsoy(MIC)” value in test [1] is on record as “Neg”. The MIC turned out to be 147 µg/mL (≈ 375 µM) in test [2] (setting [6]); 237 µg/mL (≈ 604 µM) in test [2] (setting [7]); 293 µg/mL (≈ 747 µM) in test [3] (setting [8]); 99 µg/mL (≈ 252 µM) in test [4] (setting [9]); 121 µg/mL (≈ 308 µM) in test [4] (setting [10]). Besides, in test [3] (Mueller Hinton Broth), the “Ecoli/MH(MIC)” value is recorded as “Neg”. For the same compound, in test [5], half-maximal inhibition (IC50) required 6.7 µg/mL (≈ 17.1 µM).
